Like-named read-outs stand apart in the source and are kept apart here. Marks after values point to notes of the source that are not given here. Each block holds one compound with its values, some of them ahead of it.
Legend:
[1] = molecular target: α-glucosidase (Saccharomyces cerevisiae, UniProt P53341); test: α-glucosidase inhibition assay (pNPG); format: biochemical
Method: The fractions from B. javanica seeds were evaluated as GP-α inhibitors and were further tested for their α-glucosidase inhibitory activity as described previously. Briefly, 50 μL of samples or standard were mixed with 100 μL of α-glucosidase (0.1 U/mL) in phosphate buffer (0.1 M, pH 6.9) and incubated at 37 °C for 10 min. The reactions were initiated by addition of p-Nitrophenyl α-D-Glucoside (p-NPG, 50 μL) in phosphate buffer (0.1 M, pH 6.9) and incubated again at 37 °C for 30 min. The reactions were terminated using NaCO3 (1 M, 50 μL). […] Phosphate buffer (50 μL) was used as control. Blank readings (without substrate) were subtracted from specific sample wells and the percentage of α-Glucosidase inhibition (αGI) was calculated as following formula: αGI (%) = [(Acontrol – Asample)/Acontrol] × 100 [22].
α-glucosidase inhibition activity of isolated compounds were determined according to the method described in section 2.3 and GP-α inhibition activity was measured according to our previously reported method.

[2] = molecular target: T1, glycogen phosphorylase α (GP-α) (Oryctolagus cuniculus, UniProt P00489); test: GP-α inhibition assay; format: biochemical
T1 sequence (P00489 2-843 limits assumed): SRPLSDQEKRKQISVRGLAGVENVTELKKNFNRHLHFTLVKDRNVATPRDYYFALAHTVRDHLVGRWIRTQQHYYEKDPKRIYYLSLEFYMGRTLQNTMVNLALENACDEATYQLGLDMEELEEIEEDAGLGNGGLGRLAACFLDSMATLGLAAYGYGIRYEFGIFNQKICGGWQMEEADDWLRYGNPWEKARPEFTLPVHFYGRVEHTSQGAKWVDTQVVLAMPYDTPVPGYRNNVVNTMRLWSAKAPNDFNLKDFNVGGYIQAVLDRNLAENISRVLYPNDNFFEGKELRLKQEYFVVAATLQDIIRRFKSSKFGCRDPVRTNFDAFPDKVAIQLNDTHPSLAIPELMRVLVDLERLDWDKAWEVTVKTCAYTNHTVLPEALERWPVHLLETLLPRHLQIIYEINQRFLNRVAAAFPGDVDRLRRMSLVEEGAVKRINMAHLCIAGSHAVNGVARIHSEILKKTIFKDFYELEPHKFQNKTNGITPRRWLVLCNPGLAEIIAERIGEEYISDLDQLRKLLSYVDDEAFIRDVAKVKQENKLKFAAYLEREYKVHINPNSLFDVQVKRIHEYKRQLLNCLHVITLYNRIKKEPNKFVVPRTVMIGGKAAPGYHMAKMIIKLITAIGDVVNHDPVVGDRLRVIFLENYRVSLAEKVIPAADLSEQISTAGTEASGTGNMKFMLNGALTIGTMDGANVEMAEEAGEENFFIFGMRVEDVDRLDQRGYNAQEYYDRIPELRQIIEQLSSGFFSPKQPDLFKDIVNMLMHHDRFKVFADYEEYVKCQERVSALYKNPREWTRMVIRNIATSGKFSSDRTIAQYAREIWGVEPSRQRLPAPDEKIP

[3] = test system: nondiabetic mice; conditions: 1 mg/kg b.w., 0-8 h screening; cited from earlier work
[4] = test system: STZ-induced diabetic rats; conditions: 1 mg/kg b.w., 0-8 h screening; cited from earlier work
[5] = test system: NA-STZ induced type 2 diabetic (T2D) rats; test: Liver and renal function markers in T2D rats; format: in vivo, Sprague Dawley (SD) rats; conditions: 10 mg/kg b.w., 4 weeks, serum
Method: (§1) At the end of study period, rats were fasted overnight, anesthetized, and the blood sample was collected by cardiac puncture. At the end, the rats were sacrificed by cervical dislocation. The blood sample was centrifuged 2000 x g for 15 minute at 4 °C, serum was collected and stored at −80 °C until analyses. The liver was carefully removed, washed in ice-cold phosphate buffered saline (PBS, pH 7.4) to remove the blood. A piece of liver sample was rinsed in liquid nitrogen, stored at −80 °C for glycogen assay.
(§2) The levels of serum total cholesterol (TC), triglycerides (TG), low density lipoprotein cholesterol (LDL-C), and high density lipoprotein cholesterol (HDL-C), total protein, alkaline phosphatase (ALP), alanine aminotransferase (ALT), aspartate aminotransferase (AST), urea, creatinine were analyzed using automatic biochemical analyzer (Beckman-700, Fullerton, CA, USA)

[6] = test system: NA-STZ induced type 2 diabetic (T2D) rats; test: Serum MDA and GSH levels in T2D rats; format: in vivo, Sprague Dawley (SD) rats; conditions: 10 mg/kg
Method: as §1
The malondialdehyde (MDA), a byproduct of lipid peroxidation, and glutathione (GSH), a marker of antioxidant defense, were quantified by commercial kit (Cayman chemical company, Ann Arbor, MI, USA) according to the manufacturer’s instructions.

[7] = test system: NA-STZ induced type 2 diabetic (T2D) rats; test: Liver glycogen contents in T2D rats; format: in vivo, Sprague Dawley (SD) rats; conditions: 10 mg/kg b.w.
Method: as §1
The glycogen contents in the liver were measured using a glycogen assay kit (Ann Arbor, MI, USA) according to the manufacturer’s instructions.

[8] = test system: NA-STZ induced type 2 diabetic (T2D) rats; test: Oral glucose tolerance test (OGTT) in T2D rats; format: in vivo, Sprague Dawley (SD) rats; conditions: 10 mg/kg
Method: On the 25th day of treatment, the OGTT was carried out according to the previously reported method. All animals were fasted overnight (16 h) before commencing the experiments. Group I (non-diabetic control) and Group II (diabetic control) weretreated with distilled water, Group III and Group IV were given EAF (25 and 50 mg/kg b.w), and Group V was given glibenclamide (10 mg/kg b.w.) using oral gavage, respectively. After 30 min, α-D-glucose (2 g/kg b.w.) was administered orally into all groups of rats. Blood samples were collected from the tail vein at 0 (immediately after glucose load), 30, 60, 90, and 120 min, and blood glucose levels were determined by glucose oxidase method using a commercial glucose meter (Roche, USA). […] AUCglucose=C1+C2/2×t2−t1
Where, C1 and C2 are concentrations of glucose at different time points; t1 and t2 are different tested time points.

[9] = test system: NA-STZ induced type 2 diabetic (T2D) rats; test: Fasting blood glucose levels in NA-STZ T2D rats, 28-day oral treatment; format: in vivo, Sprague Dawley (SD) rats; conditions: for Fasting blood glucose level: 10 mg/kg/day b.w. oral
Method: The experimental rats were fasted overnight (16 h) and diabetes was induced by single intraperitoneal (i.p) injection of STZ (60 mg/kg b.w.) freshly prepared in 0.1 M citrate buffer (pH 4.5) 15 min after i.p injection of NA (100 mg/kg b.w.) dissolved in normal saline. Diabetes was confirmed 3 weeks after NA-STZ induction by measuring tail vein blood glucose levels using glucose meter (Accu-check Performa, Rochi diagnostic, USA). The rats having blood glucose levels higher than 11 mmol/L were considered as diabetic and selected for study.
The experimental rats were divided into 5 groups (n = 6; 3 M/3 F) as following. Group I: non-diabetic control (NDC) and Group II: diabetic control (DC) consisted of rats were allowed to free access of water; Group III and IV were treated orally with EAF (25 and 50 mg/kg/day b.w.) diluted in distilled water, Group V was treated orally with Glibenclamide (10 mg/kg/day b.w.) and served as standard drug. All groups except group 1 are diabetic. The selected doses (25 and 50 mg/kg/day b.w) were based on prior acute oral toxicity study.
(§3) After diabetes was confirmed, rats were divided into specific groups which were mentioned in the section of treatment protocol above. Fasting blood glucose (FBG) levels and body weight of rats were measured and it was considered as 0 day. The extracts and standard drug were administered orally on a daily base in single dose for 28 days. At the end of each week, animals were fasted overnight and body weights were recorded using electronic balance. Blood samples were obtained from the tail vein of the rats by Accu-Chek FastClix lancing device and blood glucose levels were analysed using glucose meter (Accu-check, Roche Diagnostics, USA).

[10] = test system: NA-STZ induced type 2 diabetic (T2D) rats; test: Serum lipid profiles in T2D rats; format: in vivo, Sprague Dawley (SD) rats; conditions: 10 mg/kg, 4 weeks
Method: as §1, §2

[11] = test system: NA-STZ induced type 2 diabetic (T2D) rats; test: Serum cytokine levels (ELISA) in T2D rats; format: in vivo, Sprague Dawley (SD) rats; conditions: 10 mg/kg b.w.
Method: as §1
The quantification of cytokine in the serum was assessed by enzyme-linked immunosorbent assay (ELISA) using commercial kits for rat TNF-α, rat IL-6, and rat IL-1β (eBioscience, San Diego, CA USA) according to the manufacturer’s instructions.

[12] = test system: NA-STZ induced type 2 diabetic (T2D) rats; test: Serum insulin levels and HOMA-IR in T2D rats; format: in vivo, Sprague Dawley (SD) rats; conditions: 10 mg/kg, 4 weeks, not significant
Method: as §1
The serum insulin levels were quantified by using rat insulin ELISA kit (Mercodia AB, Uppsala, Sweden) according to the manufacturer’s instructions. Insulin resistance (IR) was calculated according to the homeostasis model assessment by using the following equation [24] HOMA−IR=glucosemmol/L×insulinμU/mL/22.5

[13] = Body weights in T2D rats; format: in vivo, Sprague Dawley (SD) rats; conditions: 10 mg/kg/day b.w. oral
Method: as §3

[14] = isolated compounds, read-out: Glycogen phosphorylase α IC50

Sequence of α-glucosidase (P53341 whole entry): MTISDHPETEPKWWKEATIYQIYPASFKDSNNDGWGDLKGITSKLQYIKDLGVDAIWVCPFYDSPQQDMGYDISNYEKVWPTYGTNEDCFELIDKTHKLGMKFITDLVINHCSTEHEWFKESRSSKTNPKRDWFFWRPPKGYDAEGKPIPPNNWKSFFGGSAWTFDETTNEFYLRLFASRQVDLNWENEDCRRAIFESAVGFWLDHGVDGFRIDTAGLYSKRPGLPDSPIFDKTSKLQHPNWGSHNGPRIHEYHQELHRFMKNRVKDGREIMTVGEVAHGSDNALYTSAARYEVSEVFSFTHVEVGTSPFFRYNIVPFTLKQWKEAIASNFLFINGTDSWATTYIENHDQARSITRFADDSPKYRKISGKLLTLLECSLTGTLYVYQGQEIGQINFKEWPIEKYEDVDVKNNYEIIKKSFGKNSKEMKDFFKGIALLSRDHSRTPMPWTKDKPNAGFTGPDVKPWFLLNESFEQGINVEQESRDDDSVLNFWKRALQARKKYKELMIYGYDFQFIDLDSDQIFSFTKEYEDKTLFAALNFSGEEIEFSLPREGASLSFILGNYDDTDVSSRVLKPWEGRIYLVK

SMILES: COc1cc(C(=O)O)ccc1O [Compound 1, vanillic acid]
α-glucosidase inhibition [1]: no inhibition
α-glucosidase inhibition ([1]; concentrations tested up to 6 mM): did not inhibit
GP-α inhibition [2]: no inhibition
inhibition at 12000 µM ([2]; at 12 mM): 22.9%

SMILES: CC1=CC(=O)[C@@H](O)[C@]2(C)[C@H]3[C@@H](O)[C@H](O)[C@]4(C)OC[C@@]35[C@@H](C[C@@H]12)OC(=O)[C@H](O)[C@]54O [Compound 2, bruceine D]
α-glucosidase inhibition [1]: no inhibition
inhibitory activity against α-glucosidase ([1]; at 2.5 mM): 14.74%
blood glucose effect [3]: blood glucose lowering effect
GP-α inhibition [2]: no inhibition
blood glucose effect [4]: blood glucose lowering effect

SMILES: CC1=C[C@H](O)[C@@H](O)[C@]2(C)[C@H]3[C@@H](O)[C@H](O)[C@@]4(C)OC[C@@]35[C@@H](C[C@@H]12)OC(=O)[C@H](O)[C@]54O [Compound 3, bruceine E]
α-glucosidase inhibition [1]: no inhibition
inhibition at 2500 µM ([1]; at 2.5 mM, read-out: inhibitory activity against α-glucosidase): 16.1%
blood glucose effect [3]: blood glucose lowering effect
GP-α inhibition [2]: no inhibition
inhibition at 5000 µM ([2]; at 5 mM, read-out: inhibitory activity against GP-α): 32.7%
blood glucose effect [4]: blood glucose lowering effect

IC50 [2, 14]: 357.88 ± 0.07 µM
SMILES: O=C(O)c1ccc(O)cc1 [Compound 4, Para-hydroxybenzoic acid]

SMILES: O=c1cc(-c2ccc(O)c(O)c2)oc2cc(O)cc(O)c12 [Compound 5, luteolin]
α-glucosidase inhibitory potency relative to acarbose ([1]; vs acarbose): 5.5 fold
IC50 [2, 14]: 45.08 ± 0.04 µM
GP-α inhibitory potency relative to caffeine ([2]; vs caffeine): 10 fold

IC50 [2, 14]: 297.37 ± 0.13 µM
SMILES: O=C(O)c1ccc(O)c(O)c1 [Compound 6, protocatechuic acid]

SMILES: O=C(O)c1cc(O)c(O)c(O)c1 [Compound 7, gallic acid]
IC50 [2]: 214.38 ± 0.12 µM

ALP [5]: 146.67 ± 10.50 U/L
Creatinine [5]: 29.00 ± 0.93 µmol/L
Urea [5]: 10.37 ± 1.80 mmol/L
SMILES: COc1ccc(Cl)cc1C(=O)NCCc1ccc(S(=O)(=O)NC(=O)NC2CCCCC2)cc1 [Glibenclamide, glibenclamide]
ALT [5]: 58.17 ± 4.52 U/L
AST [5]: 138.83 ± 8.33 U/L
reduction of serum MDA level compared to DC group [6]: about 36.45%
increase of serum GSH level compared to DC group ([6]; not significant): about 18.94%
LG (liver glycogen) [7]: 11.55 ± 1.82 mg/g tissue
decrease of AUC for glucose 0 to 120 min compared to DC group [8]: 57.42%
OGTT blood glucose reduction at 120 min compared to the values at 30 min ([8]; day 25, glucose 2 g/kg): 29.97%
reduction of FBG levels compared to initial day ([9]; 10 mg/kg b.w. once a day for 28 days): 45.44%
Fasting blood glucose level ([9]; 0 Day): 16.90 ± 1.63 mmol/L
Fasting blood glucose level ([9]; Day 7): 17.63 ± 2.13 mmol/L
Fasting blood glucose level ([9]; Day 14): 12.97 ± 0.72 mmol/L
Fasting blood glucose level ([9]; Day 21): 11.83 ± 1.27 mmol/L
Fasting blood glucose level ([9]; Day 28): 9.22 ± 0.65^a mmol/L
Serum HDL [10]: 1.31 ± 0.08^a mmol/L
Serum LDL [10]: 0.59 ± 0.04^a mmol/L
Serum TC [10]: 1.12 ± 0.05^c mmol/L
Serum TG [10]: 0.52 ± 0.09^b mmol/L
IL-1β [11]: 570.67 ± 31.71^b pg/ml
IL-6 [11]: 123.06 ± 10.18^b pg/ml
TNF-α [11]: 70.10 ± 4.00^b pg/ml
increase of serum insulin compared to diabetic control group [12]: 16.5%
Body Weight ([13]; 0 Day): 211.00 ± 6.19 g
Body Weight ([13]; Day 7): 203.50 ± 8.90 g
Body Weight ([13]; Day 14): 205.83 ± 7.31 g
Body Weight ([13]; Day 21): 206.00 ± 6.64 g
Body Weight ([13]; Day 28): 209.33 ± 7.91 g

From article PMC5294771, “Antidiabetic effects of Brucea javanica seeds in type 2 diabetic rats” (BMC Complementary and Alternative Medicine, 2017)
